A value given as a limit tells only on which side of the number the result lay.

[GSPT1]-[compound of formula (I)]-[CRBN/DDB1] complex, sequence (P15170 whole entry): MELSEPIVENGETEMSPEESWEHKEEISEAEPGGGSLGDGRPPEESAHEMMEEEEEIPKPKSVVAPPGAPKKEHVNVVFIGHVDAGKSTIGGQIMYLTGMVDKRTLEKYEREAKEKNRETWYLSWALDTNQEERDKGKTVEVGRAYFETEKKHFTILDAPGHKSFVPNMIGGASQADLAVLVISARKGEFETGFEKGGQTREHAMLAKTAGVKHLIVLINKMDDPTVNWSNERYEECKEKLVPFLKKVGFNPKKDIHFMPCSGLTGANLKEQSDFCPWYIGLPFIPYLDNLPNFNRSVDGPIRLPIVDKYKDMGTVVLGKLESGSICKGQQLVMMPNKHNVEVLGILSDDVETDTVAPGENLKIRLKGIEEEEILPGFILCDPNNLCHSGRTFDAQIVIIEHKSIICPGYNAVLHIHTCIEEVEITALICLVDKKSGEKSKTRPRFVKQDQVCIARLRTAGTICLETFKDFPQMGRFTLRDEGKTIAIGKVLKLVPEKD
[GSPT1]-[compound of formula (I)]-[CRBN/DDB1] complex, sequence (Q96SW2 whole entry): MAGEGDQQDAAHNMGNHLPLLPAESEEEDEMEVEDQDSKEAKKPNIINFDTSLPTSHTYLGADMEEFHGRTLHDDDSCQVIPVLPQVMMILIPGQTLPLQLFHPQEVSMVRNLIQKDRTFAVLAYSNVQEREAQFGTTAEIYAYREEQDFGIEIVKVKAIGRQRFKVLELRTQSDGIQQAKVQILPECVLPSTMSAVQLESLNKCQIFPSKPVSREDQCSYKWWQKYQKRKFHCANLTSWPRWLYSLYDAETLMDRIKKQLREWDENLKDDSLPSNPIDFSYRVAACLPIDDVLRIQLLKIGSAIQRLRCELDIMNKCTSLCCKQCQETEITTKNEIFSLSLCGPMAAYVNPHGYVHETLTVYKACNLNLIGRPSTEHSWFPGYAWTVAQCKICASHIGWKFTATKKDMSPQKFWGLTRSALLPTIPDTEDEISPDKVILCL
[GSPT1]-[compound of formula (I)]-[CRBN/DDB1] complex, sequence (Q16531 whole entry partner): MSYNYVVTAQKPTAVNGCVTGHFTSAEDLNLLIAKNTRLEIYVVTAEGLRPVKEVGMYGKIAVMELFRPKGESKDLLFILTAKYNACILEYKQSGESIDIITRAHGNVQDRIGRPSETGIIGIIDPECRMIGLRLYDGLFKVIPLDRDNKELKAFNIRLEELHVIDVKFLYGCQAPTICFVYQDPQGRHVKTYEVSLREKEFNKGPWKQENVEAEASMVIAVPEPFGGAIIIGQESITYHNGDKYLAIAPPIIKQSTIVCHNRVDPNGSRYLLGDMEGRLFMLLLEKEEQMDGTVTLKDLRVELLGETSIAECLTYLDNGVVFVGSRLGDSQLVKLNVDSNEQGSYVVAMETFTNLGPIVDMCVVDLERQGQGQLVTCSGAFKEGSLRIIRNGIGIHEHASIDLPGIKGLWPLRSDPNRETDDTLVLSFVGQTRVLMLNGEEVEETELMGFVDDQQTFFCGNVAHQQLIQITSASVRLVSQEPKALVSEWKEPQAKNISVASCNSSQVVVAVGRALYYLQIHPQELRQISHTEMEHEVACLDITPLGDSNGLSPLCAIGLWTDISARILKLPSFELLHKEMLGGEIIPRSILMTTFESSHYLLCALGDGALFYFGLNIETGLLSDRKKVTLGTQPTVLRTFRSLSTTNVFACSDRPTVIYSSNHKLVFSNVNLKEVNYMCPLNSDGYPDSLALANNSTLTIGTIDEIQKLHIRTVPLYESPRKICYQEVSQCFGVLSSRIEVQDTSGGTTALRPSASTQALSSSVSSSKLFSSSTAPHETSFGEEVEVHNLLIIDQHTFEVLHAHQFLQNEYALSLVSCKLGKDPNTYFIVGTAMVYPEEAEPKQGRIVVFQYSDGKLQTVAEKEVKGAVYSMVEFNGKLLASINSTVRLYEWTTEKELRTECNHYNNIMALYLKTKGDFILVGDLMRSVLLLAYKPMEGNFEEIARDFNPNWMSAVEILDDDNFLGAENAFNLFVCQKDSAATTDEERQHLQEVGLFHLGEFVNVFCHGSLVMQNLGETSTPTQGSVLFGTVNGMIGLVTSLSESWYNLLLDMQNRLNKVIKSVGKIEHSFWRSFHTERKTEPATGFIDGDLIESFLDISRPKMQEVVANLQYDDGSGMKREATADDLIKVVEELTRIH

In this test the target is [GSPT1]-[compound of formula (I)]-[CRBN/DDB1] complex (Homo sapiens, UniProt P15170+Q96SW2). Briefly: HTRF ternary complex assay (GSPT1). The class given is binding. The settings on record: read-out: HTRF ternary complex Average pEC50 by molecule (converted). As for the experimental part:
The effect of the molecular glue compounds of the invention on the formation of a ternary complex composed of [GSPT1]-[compound of formula (I)]-[CRBN/DDB1] was investigated.
Mix solution of proteins and reagents was prepared: • 48 nM GSPT1, 52.8 nM 6×His-CRBN/DDB1, 3 nM of Streptavidin-Eu cryptate ([…]) and 6.67 nM of Anti-6×his-d2 ([…]) was prepared in PPI Europium detection buffer (purchased from Cisbio) with 1 mM DTT.
The tested compounds in dose-response were dispensed onto a white 384-well low volume plate (Greiner, 784075). DMSO was backfilled to all wells, resulting in a final DMSO content of 0.5%. Wells containing only DMSO served as background.
The plate was sealed with transparent film and shaken using a VibroTurbulator for 60 sec at level 3.
The plate was then spun down shortly (10 sec, 1000 rcf) and incubated at 25° C. for 180 min.
The read-out was performed with plate reader (Pherastar, BMG Labtech) in time resolved fluorescence mode. Filter settings: TR 337 665 620.
The results were analyzed as follows: • 1) an average of fluorescence for background signal was calculated and used as a negative control; • 2) raw fluorescence values for tested compounds were normalized against negative controls; • 3) saturation curve was fitted to specific binding with Hill slope model; • 4) EC50 and pEC50 values were determined.
(In general: In TR-FRET formats the signal depends on donor and acceptor labels being close together.)
On to `COc1ccc(NC(=O)OCc2ccc3cc(C4CCC(=O)NC4=O)c(C)nc3c2)cc1Cl` (stereo not shown) [Compound 11, (3-(2,6-dioxopiperidin-3-yl)-2-methylquinolin-7-yl)methyl (3-chloro-4-methoxyphenyl)carbamate], for which the EC50 was 316 to 3160 nM.

Turning to `Cc1nc2ccc(COC(=O)Nc3cc(C(C)(C)C)no3)cc2cc1N1CCC(=O)NC1=O` [Compound 66, (3-(2,4-dioxotetrahydropyrimidin-1(2H)-yl)-2-methylquinolin-6-yl)methyl (3-(tert-butyl)isoxazol-5-yl)carbamate], the EC50 is 316 to 3160 nM. Turning to `Cc1ccc(NC(=O)CCc2ccc3cc(C4CCC(=O)NC4=O)c(C)nc3c2)cc1Cl` (stereo not shown) [Compound 32, N-(3-chloro-4-methylphenyl)-3-(3-(2,6-dioxopiperidin-3-yl)-2-methylquinolin-7-yl)propanamide], the EC50 was 316 to 3160 nM. `Cc1nc2cc(COC(=O)Nc3ccc(C(C)(C)C)cc3)ccc2cc1C1CCC(=O)NC1=O` (stereo not shown) [Compound 8, (3-(2,6-dioxopiperidin-3-yl)-2-methylquinolin-7-yl)methyl (4-(tert-butyl)phenyl)carbamate]: the EC50 was 316 to 3160 nM. In the case of `Cc1nc2cc(COC(=O)Nc3ccc4c(c3)OCCO4)ccc2cc1C1CCC(=O)NC1=O` (stereo not shown) [Compound 15, (3-(2,6-dioxopiperidin-3-yl)-2-methylquinolin-7-yl)methyl (2,3-dihydrobenzo[b][1,4]dioxin-6-yl)carbamate], the EC50 was 316 to 3160 nM. Regarding `Cc1nc2cc(COC(=O)Nc3ccc(C(F)(F)F)c(Cl)c3)ccc2cc1C1CCC(=O)NC1=O` (stereo not shown) [Compound 18, (3-(2,6-dioxopiperidin-3-yl)-2-methylquinolin-7-yl)methyl (3-chloro-4-(trifluoromethyl)phenyl)carbamate], the EC50 was 316 to 3160 nM.

For `Cc1nc2cc(CNC(=O)Nc3cc(C(C)(C)C)no3)ccc2cc1N1CCC(=O)NC1=O` [Compound 64, 1-(3-(tert-butyl)isoxazol-5-yl)-3-((3-(2,4-dioxotetrahydropyrimidin-1(2H)-yl)-2-methylquinolin-7-yl)methyl)urea], the EC50 was below 316 nM.

On to `Cc1nc2cc(COC(=O)Nc3ccc(C(C)(C)C)c(Cl)c3)ccc2cc1C1CCC(=O)NC1=O` (stereo not shown) [Compound 10, (3-(2,6-dioxopiperidin-3-yl)-2-methylquinolin-7-yl)methyl (4-(tert-butyl)-3-chlorophenyl)carbamate], for which the EC50 is below 316 nM. Regarding `Cc1ccc(NC(=O)OCc2ccc3cc([C@@H]4CCC(=O)NC4=O)c(C)nc3c2)cc1Cl` [Compound 38, (3-(2,6-dioxopiperidin-3-yl)-2-methylquinolin-7-yl)methyl (3-chloro-4-methylphenyl)carbamate], the EC50 was 316 to 3160 nM. On to `Cc1nc2cc(COC(=O)Nc3cccc(-c4ccccc4)c3)ccc2cc1C1CCC(=O)NC1=O` (stereo not shown) [Compound 46, (3-(2,6-dioxopiperidin-3-yl)-2-methylquinolin-7-yl)methyl [1,1′-biphenyl]-3-ylcarbamate], for which the EC50 was 316 to 3160 nM.

As to `Cc1nc2cc(COC(=O)Nc3cc(OC(F)(F)F)ccc3F)ccc2cc1C1CCC(=O)NC1=O` (stereo not shown) [Compound 6, (3-(2,6-dioxopiperidin-3-yl)-2-methylquinolin-7-yl)methyl (2-fluoro-5-(trifluoromethoxy)phenyl)carbamate], the EC50 was 316 to 3160 nM.

As to `Cc1ccc(NC(=O)OCc2ccc3cc(N4CCC(=O)NC4=O)c(C)nc3c2)cc1Cl` [Compound 28, (3-(2,4-dioxotetrahydropyrimidin-1(2H)-yl)-2-methylquinolin-7-yl)methyl (3-chloro-4-methylphenyl)carbamate], the EC50 is 316 to 3160 nM. The value for `[2H]C([2H])(OC(=O)Nc1cc(C(C)(C)C)no1)c1ccc2cc(C3CCC(=O)NC3=O)c(C)nc2c1` (stereo not shown) [Compound 82, (3-(2,6-dioxopiperidin-3-yl)-2-methylquinolin-7-yl)methyl-d2 (3-(tert-butyl)isoxazol-5-yl)carbamate] was below 316 nM; that for `Cc1nc2cc(COC(=O)Nc3cccc(C(C)(C)C)c3)ccc2cc1C1CCC(=O)NC1=O` (stereo not shown) [Compound 9, (3-(2,6-dioxopiperidin-3-yl)-2-methylquinolin-7-yl)methyl (3-(tert-butyl)phenyl)carbamate] was 316 to 3160 nM. The value for `Cc1nc2cc(COC(=O)Nc3cc(C(F)(F)F)no3)ccc2cc1C1CCC(=O)NC1=O` (stereo not shown) [Compound 71, (3-(2,6-dioxopiperidin-3-yl)-2-methylquinolin-7-yl)methyl (3-(trifluoromethyl)isoxazol-5-yl)carbamate] was above 3160 nM; that for `COc1ccc(NC(=O)OCc2ccc3cc(C4CCC(=O)NC4=O)c(C)nc3c2)nn1` (stereo not shown) [Compound 45, (3-(2,6-dioxopiperidin-3-yl)-2-methylquinolin-7-yl)methyl (6-methoxypyridazin-3-yl)carbamate] was 316 to 3160 nM; that for `Cc1nc2cc(COC(=O)Nc3cc(C4(C(F)(F)F)CC4)no3)ccc2cc1C1CCC(=O)NC1=O` (stereo not shown) [Compound 81, (3-(2,6-dioxopiperidin-3-yl)-2-methylquinolin-7-yl)methyl (3-(1-(trifluoromethyl)cyclopropyl)isoxazol-5-yl)carbamate] was below 316 nM. Turning to `Cc1nc2cc(COC(=O)Nc3cccc(OC(F)(F)F)c3)ccc2cc1C1CCC(=O)NC1=O` (stereo not shown) [Compound 19, (3-(2,6-dioxopiperidin-3-yl)-2-methylquinolin-7-yl)methyl (3-(trifluoromethoxy)phenyl)carbamate], the EC50 is above 3160 nM.

Consider `Cc1nc2cc(COC(=O)Nc3csc(-c4ccccc4)c3)ccc2cc1C1CCC(=O)NC1=O` (stereo not shown) [Compound 37, (3-(2,6-dioxopiperidin-3-yl)-2-methylquinolin-7-yl)methyl (5-phenylthiophen-3-yl)carbamate], for which the EC50 was 316 to 3160 nM. With `Cc1ccc(NC(=O)OCc2cc(F)c3cc(C4CCC(=O)NC4=O)c(C)nc3c2)cc1Cl` (stereo not shown) [Compound 22, (3-(2,6-dioxopiperidin-3-yl)-5-fluoro-2-methylquinolin-7-yl)methyl (3-chloro-4-methylphenyl)carbamate], the EC50 is 316 to 3160 nM. For `Cc1nc2cc(COC(=O)NC3CCC(C(C)(C)C)CC3)ccc2cc1C1CCC(=O)NC1=O` (stereo not shown) [Compound 55, (3-(2,6-dioxopiperidin-3-yl)-2-methylquinolin-7-yl)methyl (4-(tert-butyl)cyclohexyl)carbamate] the value was 316 to 3160 nM; for `Cc1nc2cc(COC(=O)Nc3ccc4c(c3)OCO4)ccc2cc1C1CCC(=O)NC1=O` (stereo not shown) [Compound 14, (3-(2,6-dioxopiperidin-3-yl)-2-methylquinolin-7-yl)methyl benzo[d][1,3]dioxol-5-ylcarbamate], 316 to 3160 nM. For `Cc1nc2cc(COC(=O)Nc3cc(C(C)(C)C)on3)ccc2cc1C1CCC(=O)NC1=O` (stereo not shown) [Compound 70, (3-(2,6-dioxopiperidin-3-yl)-2-methylquinolin-7-yl)methyl (5-(tert-butyl)isoxazol-3-yl)carbamate], the EC50 is below 316 nM. As to `Cc1nc2ccc(CNC(=O)Nc3cc(C(C)(C)C)no3)cc2cc1N1CCC(=O)NC1=O` [Compound 67, 1-(3-(tert-butyl)isoxazol-5-yl)-3-((3-(2,4-dioxotetrahydropyrimidin-1(2H)-yl)-2-methylquinolin-6-yl)methyl)urea], the EC50 was below 316 nM. Turning to `COc1cnc(NC(=O)OCc2ccc3cc(C4CCC(=O)NC4=O)c(C)nc3c2)cn1` (stereo not shown) [Compound 59, (3-(2,6-dioxopiperidin-3-yl)-2-methylquinolin-7-yl)methyl (5-methoxypyrazin-2-yl)carbamate], the EC50 was below 316 nM.

The values are drawn from patent publication US20260232682A1, “GSPT1 DEGRADER COMPOUNDS” (Captor Therapeutics S.A., priority 2023, published 2026).
